Results as given in the supplement of paper PMC7840683.
± gives the standard deviation of the averaged measurements.

System: HepaRG
Experiment: LDH release cytotoxicity, % of total lysis control; higher = more cytotoxic
Details: 48 h
In short: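 Duplicate wells of single-lot HepaRG cells, grown on collagen I-coated 96-well plates, received eight-point half-log series of test chemicals with 100 µM as the top concentration. Exposure lasted 48 h in serum-free induction medium with 0.5% DMSO, while total lysis wells received 0.1% Triton X. Resorufin fluorescence (CytoTox-ONE, Tecan Safire) was used to quantify LDH leaked into 50 µL of spent medium. Values for percent cytotoxicity were normalized to on-plate vehicle and total lysis controls and averaged across the duplicates.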

SMILES	LDH release cytotoxicity (0.03162 µM) [%]	LDH release cytotoxicity (0.1 µM) [%]	LDH release cytotoxicity (0.3162278 µM) [%]	LDH release cytotoxicity (1 µM) [%]	LDH release cytotoxicity (3.16228 µM) [%]	LDH release cytotoxicity (10 µM) [%]	LDH release cytotoxicity (31.6228 µM) [%]	LDH release cytotoxicity (100 µM) [%]	LDH release cytotoxicity (0.031623 µM) [%]	LDH release cytotoxicity (0.316228 µM) [%]	LDH release cytotoxicity (0.0253 µM) [%]	LDH release cytotoxicity (0.08 µM) [%]	LDH release cytotoxicity (0.252982 µM) [%]	LDH release cytotoxicity (0.8 µM) [%]	LDH release cytotoxicity (2.52982 µM) [%]	LDH release cytotoxicity (8 µM) [%]	LDH release cytotoxicity (25.2982 µM) [%]	LDH release cytotoxicity (80 µM) [%]
CCCN(CCC)c1c([N+](=O)[O-])cc(C(C)C)cc1[N+](=O)[O-] [Isopropalin]	-0.731 ± 0.3	-1.48 ± 0.89	-2.92 ± 0.17	-1.36 ± 0.06	-1.98 ± 0.26	-1.28 ± 0.079	-1.55 ± 0.27	-0.986 ± 0.92										
CSC(C)=NOC(=O)N(C)SN(C)C(=O)ON=C(C)SC [Thiodicarb]	0.264 ± 0.45	0.37 ± 0.55	-0.268 ± 0.33	0.546 ± 0.75	0.811 ± 0.23	1.07 ± 0.71	1.06 ± 0.2	1.18 ± 0.48										
O=C(c1ccccc1)C1CCCCC1 [Cyclohexylphenylketone]	-1.79 ± 0.41	-2.63 ± 2.5	-0.957 ± 0.23	-1.4 ± 1	-1.03 ± 1	-0.851 ± 0.87	-0.8 ± 0.37	0.0978 ± 0.62										
O=C1c2ccccc2C(=O)N1SC(Cl)(Cl)Cl [Folpet]		-2.6 ± 0.32		-1.65 ± 1.3	-1.73 ± 0.14	-1.49 ± 0.98	-0.653 ± 0.48	-0.43 ± 1.1	0.571 ± 0.94	-1.27 ± 0.63								
CCC(CC)Nc1c([N+](=O)[O-])cc(C)c(C)c1[N+](=O)[O-] [Pendimethalin]	-2.12 ± 0.66	-1.6 ± 0.38	-0.436 ± 0.39	0.269 ± 1.7	1.12 ± 0.21	0.875 ± 1.2	-2.25 ± 0.069	1.08 ± 1.2										
CCCSC(=O)N(CCC)CCC [Vernolate]	-0.794 ± 1.3	-0.827 ± 0.35	-0.738 ± 0.55	-2.07 ± 0.39	-1.14 ± 0.45	-0.659 ± 0.55	0.0809 ± 0.59	1.84 ± 0.39										
CCN(CC)CCO [N,N-Diethylethanolamine]	-0.085 ± 0.14	-0.79 ± 0.26	-0.301 ± 0.27	-0.496 ± 0.54	-0.856 ± 0.15	-0.12 ± 0.4	0.244 ± 0.28	1.74 ± 0.11										
[Cl][Hg][Cl] [Mercuric chloride]	-0.633 ± 0.43	0.0218 ± 0.9	-0.338 ± 0.41	-0.378 ± 0.19	0.165 ± 0.14	-0.398 ± 0.26	-1.52 ± 0.15	-4.6 ± 0.1										
CC(C)CCCCCCc1ccc(O)cc1 [4-Nonylphenol, branched]	-2.12 ± 0.23	-1.46 ± 0.5	-1.72 ± 0.52	-1.24 ± 0.36	-1.58 ± 0.073	-1.23 ± 0.036	-0.532 ± 0.65	-0.17 ± 1										
CC(C)C1(C)N=C(c2nc3ccccc3cc2C(=O)O)NC1=O (stereo not given) [Imazaquin]	-3.4 ± 0.27	-3.18 ± 1.6	-1.28 ± 0.9	-2.88 ± 1.6	-0.995 ± 1	-0.807 ± 1.1	-0.68 ± 1	2.17 ± 0.069										
Nc1ccc2ccccc2c1 [2-Naphthylamine]	-1.06 ± 0.22	-1.31 ± 0.37	-0.801 ± 0.7	-1.43 ± 0.78	-1.16 ± 0.89	-0.463 ± 0.054	0.128 ± 0.57	0.14 ± 0.74										
O=C(O)c1ccccc1C(=O)OCc1ccccc1 [Monobenzyl phthalate]	-6.32 ± 1.2	-7.14 ± 0.13	-7.38 ± 0.78	-7.25 ± 1	-7.03 ± 0.21	-6.25 ± 0.21	-5.79 ± 1.9	-5.73 ± 0.38										
ClC1=C(Cl)C2(Cl)C3C(Cl)C(Cl)CC3C1(Cl)C2(Cl)Cl (stereo not given) [Chlordane]	-0.889 ± 1.7	-0.0312 ± 0.73	-1.4 ± 0.067	-2.2 ± 0.83	-1.5 ± 0.36	-0.57 ± 0.073	-0.758 ± 0.6	12 ± 4.7										
CC1(C)NC(=O)N(c2ccc([N+](=O)[O-])c(C(F)(F)F)c2)C1=O	-1.893 ± 0.013	-2.02 ± 0.6	-1.85 ± 0.036	-2.09 ± 0.12	-2 ± 0.71	-1.72 ± 0.061	-1.66 ± 0.7	-0.93 ± 0.35										
CC(=O)OCCC(C)C [3-Methylbutyl acetate]	-1.61 ± 1.2	-1.62 ± 0.34	-0.432 ± 0.2	-1.89 ± 0.41	-0.737 ± 0.29	0.266 ± 1.3	1.88 ± 0.52	2.4 ± 0.52										
CNCc1cc(F)ccc1Oc1ccc(Cl)c(Cl)c1	-11 ± 1.1	-10.04 ± 0.031	-10.6 ± 1.2	-10.4 ± 0.19	-11.2 ± 0.63	-10 ± 1.1	-8.03 ± 1.4	75.6 ± 5.6										
Cc1ncc(C(CCCCCCc2ccc3c(n2)NCCC3)CC(=O)O)cn1 (stereo not given)	-1.55 ± 0.6	-1.82 ± 1.1	-1.74 ± 0.75	-2.04 ± 0.057	-1.49 ± 1.3	-1.25 ± 0.094	-1.33 ± 0.38	0.986 ± 0.45										
CNC(=O)C=C(C)OP(=O)(OC)OC [Monocrotophos]	-1.04 ± 1	-1.87 ± 0.34	-1.93 ± 1.1	-1.17 ± 1.1	-1.61 ± 0.6	-1.39 ± 0.81	-0.305 ± 0.93	-0.571 ± 0.54										
O=C(O)c1cccc(Oc2ccccc2)c1 [3-Phenoxybenzoic acid]											2.02 ± 1.1	1.68 ± 0.14	1.75 ± 0.9	0.842 ± 0.14	0.659 ± 0.3	-0.233 ± 0.036	-0.367 ± 0.52	-1.57 ± 0.08
Oc1cccc(O)c1 [Resorcinol]	-0.658 ± 0.45	-1.17 ± 0.33	-0.864 ± 0.51	-1.17 ± 0.85	-2.41 ± 1	-0.6 ± 0.62	-0.357 ± 1.3	2.31 ± 0.55										
